Like-named read-outs stand apart in the source and are kept apart here.
Key:
HCT-116 = assay: Cytotoxicity assay (SRB), HCT-116; format: cell-based; conditions: Homo sapiens, HCT-116, 72 h, HCT116 cells, SRB, read-out: In Vitro Cellular Activity IC50 HCT116
Procedure, shortened: (§1)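 BT474 (12000 cells/well) was treated for 6 days, whereas HCT-116 (4000), LoVo (6000) and MCF-7 (6000) were treated for 3 days, all in RPMI 1640 containing 5% FBS. Surviving-cell percentage came from SRB dye binding measured at 540 nm.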

BT474 = assay: Cytotoxicity assay (SRB), BT474; format: cell-based
Procedure, shortened: as §1

MCF-7 = assay: Cytotoxicity assay (SRB), MCF-7; format: cell-based; conditions: Homo sapiens, MCF7, 72 h, MCF-7 cells, SRB, read-out: In Vitro Cellular Activity IC50 MCF-7
Procedure, shortened: as §1

cyclin D1/cdk 4 enzyme = target: T1, cyclin D1/cdk 4 enzyme (Homo sapiens, UniProt P11802); assay: CDK4 ELISA kinase assay (phospho-Rb ser 795 detection); format: biochemical
T1 construct: made in house; host or cells: Sf9 insect cells, recombinant baculovirus
Procedure, shortened: (§2)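 Partially purified Sf9-expressed cyclin D1/CDK4, cyclin E/CDK2 or cyclin B/CDK1 phosphorylated plate-bound GST-Rb C-terminal fragment with 200 μM ATP at 30° C for 1 h.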

cyclin E/CDK2 enzyme = target: T2, cyclin E/CDK2 enzyme (Homo sapiens, UniProt P24941); assay: CDK2 ELISA kinase assay (phospho-Rb ser 795 detection); format: biochemical
T2 construct: made in house; host or cells: Sf9 insect cells, recombinant baculovirus
Procedure, shortened: as §2

LoVo = assay: Cytotoxicity assay (SRB), LoVo; format: cell-based; conditions: Homo sapiens, LoVo, 72 h, LoVo cells, SRB, read-out: In Vitro Cellular Activity IC50 LOVO
Procedure, shortened: as §1

cyclin B/CDK1 enzyme = target: T3, cyclin B/CDK1 enzyme (Homo sapiens, UniProt P06493); assay: CDK1 ELISA kinase assay (phospho-Rb ser 795 detection); format: biochemical
T3 construct: purchased New England BioLabs; host or cells: Sf9 insect cells, recombinant baculovirus
Procedure, shortened: as §2

[1] = Homo sapiens, BT-474, 144 h, BT474 cells, 6 days, SRB; read-out: In Vitro Cellular Activity IC50 BT474
[2] = In Vitro Enzyme Assay, cyclin D1/cdk 4, read-out: CDK4 IC50
[3] = In Vitro Enzyme Assay, cyclin E/CDK2, read-out: CDK2 IC50
[4] = In Vitro Enzyme Assay, cyclin B/CDK1, read-out: CDK1 IC50
[5] = Homo sapiens, BT-474, 144 h, BT474 cells, SRB, 6 days; read-out: In Vitro Cellular Activity IC50 BT474
[6] = In Vitro Enzyme Assays, 200 μM ATP, read-out: CDK4 IC50
[7] = In Vitro Enzyme Assays, read-out: CDK2 IC50
[8] = In Vitro Enzyme Assays, read-out: CDK1 IC50

T1 sequence (P11802 whole entry, species assumed): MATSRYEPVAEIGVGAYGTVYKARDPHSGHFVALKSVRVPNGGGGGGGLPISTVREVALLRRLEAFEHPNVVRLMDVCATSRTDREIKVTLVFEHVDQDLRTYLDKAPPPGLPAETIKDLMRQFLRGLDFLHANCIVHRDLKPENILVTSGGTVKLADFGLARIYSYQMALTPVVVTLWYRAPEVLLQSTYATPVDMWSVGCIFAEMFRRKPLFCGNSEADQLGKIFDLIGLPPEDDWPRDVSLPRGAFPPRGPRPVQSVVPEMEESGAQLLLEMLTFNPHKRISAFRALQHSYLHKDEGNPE
T1 sequence (P24385 whole entry partner, species assumed): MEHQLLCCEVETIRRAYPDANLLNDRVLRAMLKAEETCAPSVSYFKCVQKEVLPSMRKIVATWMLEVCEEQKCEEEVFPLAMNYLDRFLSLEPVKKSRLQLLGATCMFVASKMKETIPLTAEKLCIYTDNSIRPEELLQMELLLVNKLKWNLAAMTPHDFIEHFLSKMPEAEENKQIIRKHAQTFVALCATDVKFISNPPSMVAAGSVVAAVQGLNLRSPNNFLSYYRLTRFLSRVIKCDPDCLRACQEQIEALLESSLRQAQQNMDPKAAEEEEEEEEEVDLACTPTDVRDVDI
T3 sequence (P06493 whole entry): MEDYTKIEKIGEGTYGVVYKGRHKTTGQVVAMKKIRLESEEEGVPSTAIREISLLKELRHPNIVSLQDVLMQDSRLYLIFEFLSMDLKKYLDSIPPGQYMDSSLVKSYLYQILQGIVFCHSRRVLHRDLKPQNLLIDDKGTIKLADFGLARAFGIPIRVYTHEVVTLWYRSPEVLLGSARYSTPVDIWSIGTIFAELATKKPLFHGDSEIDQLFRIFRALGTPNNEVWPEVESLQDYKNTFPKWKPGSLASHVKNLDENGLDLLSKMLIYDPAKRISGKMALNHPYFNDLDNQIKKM
T3 sequence (P14635 whole entry partner): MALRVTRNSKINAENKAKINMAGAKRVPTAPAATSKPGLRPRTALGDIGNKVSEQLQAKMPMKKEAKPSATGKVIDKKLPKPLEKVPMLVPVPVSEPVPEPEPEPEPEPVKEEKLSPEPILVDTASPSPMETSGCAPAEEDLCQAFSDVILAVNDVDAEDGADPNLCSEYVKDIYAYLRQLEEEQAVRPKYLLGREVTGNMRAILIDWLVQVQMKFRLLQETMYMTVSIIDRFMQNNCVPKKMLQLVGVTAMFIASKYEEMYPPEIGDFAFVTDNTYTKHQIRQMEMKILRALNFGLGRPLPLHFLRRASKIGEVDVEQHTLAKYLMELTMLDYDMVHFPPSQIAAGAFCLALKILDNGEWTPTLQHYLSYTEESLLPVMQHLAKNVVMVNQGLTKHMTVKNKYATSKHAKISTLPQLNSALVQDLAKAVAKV

| SMILES | IC50 (cyclin D1/cdk 4 enzyme; In Vitro Enzyme Assay, read-out: CDK4 IC50) [µM] | IC50 (cyclin E/CDK2 enzyme; In Vitro Enzyme Assay, read-out: CDK2 IC50) [µM] | IC50 (cyclin B/CDK1 enzyme; In Vitro Enzyme Assay, read-out: CDK1 IC50) [µM] | IC50 (cyclin D1/cdk 4 enzyme; [2]) [µM] | IC50 (cyclin E/CDK2 enzyme; [3]) [µM] | IC50 (cyclin B/CDK1 enzyme; [4]) [µM] | IC50 (cyclin D1/cdk 4 enzyme; [6]) [µM] | IC50 (cyclin E/CDK2 enzyme; [7]) [µM] | IC50 (cyclin B/CDK1 enzyme; [8]) [µM] | IC50 (HCT-116; 3 days) [µM] | IC50 (BT474; [1]) [µM] | IC50 (MCF-7; 3 days) [µM] | IC50 (LoVo; 3 days) [µM] | IC50 (HCT-116; three days) [µM] | IC50 (BT474; [5]) [µM] | IC50 (MCF-7; three days) [µM] | IC50 (LoVo; three days) [µM] |
| --- | --- | --- | --- | --- | --- | --- | --- | --- | --- | --- | --- | --- | --- | --- | --- | --- | --- |
| O=C1NC(=O)c2ccc(-c3ccc(C(F)(F)F)cc3)cc2C1=CNCc1ccc(O)c(O)c1 [Example 772, 4-[(3,4-Dihydroxy-benzylamino)-methylene]-6-(4-trifluoromethyl-phenyl)-4H-isoquinoline-1,3-dione] | – | – | – | 0.51 | 10.7 | 40.6 | – | – | – | 15.6 | 28.1 | 12.2 | 15.4 | – | – | – | – |
| O=C1NC(=O)c2ccc(C=CC3CCCCC3)cc2C1=CNCc1ccc(O)c(O)c1 [Example 664, 6-(2-Cyclohexyl-vinyl)-4-[(3,4-dihydroxy-benzylamino)-methylene]-4H-isoquinoline-1,3-dione] | – | – | – | 0.22 | 31.7 | > 50 | – | – | – | 6.7 | 9.3 | 4.8 | 6 | – | – | – | – |
| CN(Cc1ccc(NC=C2C(=O)NC(=O)c3ccccc32)cc1)C1CCCCC1 [Example 577, 4-({4-[(Cyclohexyl-methyl-amino)-methyl]-phenylamino}-methylene)-4H-isoquinoline-1,3-dione] | – | – | – | 34 | > 50 | 17.7 | – | – | – | 9.6 | 24.5 | 20.1 | 14.4 | – | – | – | – |
| O=C1NCc2cc(Br)ccc2C1=CNc1ccc(CN2CCCC2)cc1 [Example 847, 7-Bromo-4-[(4-pyrrolidin-1-ylmethyl-phenylamino)-methylene]-1,4-dihydro-2H-isoquinolin-3-one] | – | – | – | 5 | > 50 | > 50 | – | – | – | 4.3 | 8.1 | 6 | 4.9 | – | – | – | – |
| Cn1ccc(CN/C=C2\C(=O)NC(=O)c3ccc(I)cc32)cc1=O [Example 453, (4Z)-6-Iodo-4-({[(1-methyl-2-oxo-1,2-dihydropyridin-4-yl)methyl]amino}methylene)isoquinoline-1,3(2H,4H)-dione] | – | – | – | – | – | – | 0.06 | 1 | 12.6 | 3.7 | 4 | 4.3 | 3.3 | – | – | – | – |
| O=C1NC(=O)c2ccc(I)cc2/C1=C/NCc1cc(O)c(OCCN2CCCC2)cn1 [Example 522, 4-({[4-Hydroxy-5-(2-pyrrolidin-1-yl-ethoxy)-pyridin-2-ylmethyl]-amino}-methylene)-6-iodo-4H-isoquinoline-1,3-dione] | – | – | – | 0.11 | 4.5 | 32.4 | – | – | – | 1.42 | 2.13 | 0.99 | 1.19 | – | – | – | – |
| CCCCCCOc1ccc(CN/C=C2\C(=O)NC(=O)c3ccc(Br)cc32)cc1O [Example 150, (4Z)-6-Bromo-4-({[4-(hexyloxy)-3-hydroxybenzyl]amino}methylene)isoquinoline-1,3(2H,4H)-dione] | – | – | – | – | – | – | 7.2 | > 50 | > 50 | – | – | – | – | 49 | > 50 | 46 | > 50 |
| CC(C)(C)c1ccc2c(c1)/C(=C/NCc1ccn(-c3ccoc3)c(=O)c1)C(=O)NC2=O [Example 533, (4Z)-6-tert-Butyl-4-[({[1-(3-furyl)-2-oxo-1,2-dihydropyridin-4-yl]methyl}amino)methylene]isoquinoline-1,3(2H,4H)-dione] | – | – | – | 0.03 | 3.5 | 6.4 | – | – | – | 1.5 | 0.49 | 1.5 | 0.73 | – | – | – | – |
| CCN(CC)Cc1ccc(NC=C2C(=O)NC(=O)c3ccccc32)cc1 [Example 574, 4-[(4-Diethylaminomethyl-phenylamino)-methylene]-4H-isoquinoline-1,3-dione] | – | – | – | 5.5 | 30.4 | 18.5 | – | – | – | 10.3 | 10.6 | 14 | 29.8 | – | – | – | – |
| COc1ccc(CNC=C2C(=O)NC(=O)c3ccc(C=Cc4ccncc4)cc32)cc1O [Example 824, 4-[(3-Hydroxy-4-methoxy-benzylamino)-methylene]-6-(2-pyridin-4-yl-vinyl)-4H-isoquinoline-1,3-dione] | – | – | – | 0.01 | 34.7 | > 50 | – | – | – | 27.5 | > 50 | 33.2 | > 50 | – | – | – | – |

More lines, main results first:

| IC50 (cyclin D1/cdk 4 enzyme; In Vitro Enzyme Assay, read-out: CDK4 IC50) [µM] | IC50 (cyclin E/CDK2 enzyme; In Vitro Enzyme Assay, read-out: CDK2 IC50) [µM] | IC50 (cyclin B/CDK1 enzyme; In Vitro Enzyme Assay, read-out: CDK1 IC50) [µM] | IC50 (cyclin D1/cdk 4 enzyme; [2]) [µM] | IC50 (cyclin E/CDK2 enzyme; [3]) [µM] | IC50 (cyclin B/CDK1 enzyme; [4]) [µM] | IC50 (cyclin D1/cdk 4 enzyme; [6]) [µM] | IC50 (cyclin E/CDK2 enzyme; [7]) [µM] | IC50 (cyclin B/CDK1 enzyme; [8]) [µM] | SMILES | IC50 (HCT-116; 3 days) [µM] | IC50 (BT474; [1]) [µM] | IC50 (MCF-7; 3 days) [µM] | IC50 (LoVo; 3 days) [µM] | IC50 (HCT-116; three days) [µM] | IC50 (BT474; [5]) [µM] | IC50 (MCF-7; three days) [µM] | IC50 (LoVo; three days) [µM] |
| --- | --- | --- | --- | --- | --- | --- | --- | --- | --- | --- | --- | --- | --- | --- | --- | --- | --- |
| 4.3 | > 50 | > 50 | – | – | – | – | – | – | CN(CCN1CCCCC1)c1ccc(N/C=C2\C(=O)NC(=O)c3ccc(Br)cc32)cc1 [Example 865, (4Z)-6-bromo-4-[({4-[methyl(2-piperidin-1-ylethyl)amino]phenyl}amino)methylene]isoquinoline-1,3(2H,4H)-dione] | 3.1 | 7.5 | 5.3 | 3.6 | – | – | – | – |
| – | – | – | – | – | – | 0.16 | > 50 | 41.9 | C[C@@H]1CN(c2ccc(N/C=C3\C(=O)NC(=O)c4ccc(-c5ccsc5)cc43)cc2)C[C@H](C)N1 [Example 206, (4Z)-4-({[4-(3,5-Dimethylpiperazin-1-yl)phenyl]amino}methylene)-6-thien-3-ylisoquinoline-1,3(2H,4H)-dione] | – | – | – | – | 1.6 | 2.9 | 3.7 | 7.4 |
| – | – | – | – | – | – | 0.18 | > 50 | 21.6 | CC(CO)N1CCN(c2ccc(N/C=C3\C(=O)NC(=O)c4ccc(I)cc43)cc2)CC1 (centres unmarked) [Example 398, (4Z)-4-[({4-[4-(2-Hydroxy-1-methylethyl)piperazin-1-yl]phenyl}amino)methylene]-6-iodoisoquinoline-1,3(2H,4H)-dione] | 2.3 | 6.19 | 4.4 | 6.3 | – | – | – | – |
| – | – | – | – | – | – | 0.76 | > 50 | > 50 | COC[C@@H]1CCCN1Cc1ccc(N/C=C2\C(=O)NC(=O)c3ccc(I)cc32)cc1 [Example 285, (4Z)-6-Iodo-4-{[(4-{[(2S)-2-(methoxymethyl)pyrrolidin-1-yl]methyl}phenyl)amino]methylene}isoquinoline-1,3(2H,4H)-dione] | – | – | – | – | 3.6 | 0.37 | 0.79 | 3.6 |
| – | – | – | – | – | – | 2.6 | > 50 | > 50 | CN1CCN(CCN(C)c2ccc(NC=C3C(=O)NC(=O)c4ccc(Br)cc43)cc2)CC1 (stereo in doubt) [Example 261, (4Z)-6-Bromo-4-{[(4-{methyl[2-(4-methylpiperazin-1-yl)ethyl]amino}phenyl)amino]methylene}isoquinoline-1,3(2H,4H)-dione] | – | – | – | – | 3 | 10 | 9.2 | 10 |
| – | – | – | – | – | – | 0.2 | > 50 | > 50 | C[C@@H]1CN(c2ccc(N/C=C3\C(=O)NC(=O)c4ccc(-c5ccoc5)cc43)cc2)C[C@H](C)N1 [Example 207, (4Z)-4-({[4-(3,5-Dimethylpiperazin-1-yl)phenyl]amino}methylene)-6-(3-furyl)iso-quinoline-1,3(2H,4H)-dione] | – | – | – | – | 1.1 | 0.79 | 0.69 | 2.2 |
| – | – | – | 0.9 | > 50 | > 50 | – | – | – | CN1CCN(c2ccc(NC=C3C(=O)NC(=O)c4ccc(C=CCCCO)cc43)cc2)CC1 [Example 797, 6-(5-Hydroxy-pent-1-enyl)-4-{[4-(4-methyl-piperazin-1-yl)-phenylamino]-methylene}-4H-isoquinoline-1,3-dione] | 6.5 | 19.3 | 6.7 | 6.3 | – | – | – | – |
